One test addresses Bcl-2 (Homo sapiens (Human), UniProt P10415). The test is described as follows: Bcl-2/Bim Fluorescence Polarization Assay (FPA). The class given is binding. On the technique in general: Fluorescence polarisation rises when a labelled molecule tumbles more slowly, as on binding a larger partner.
Another test deals with Bcl-xL (Homo sapiens (Human), UniProt Q07817). The test is described as follows: Bcl-xL/Bim Fluorescence Resonance Energy Transfer Assay (FRET). In kind it is binding. A digest of the protocol:
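Biotin-Bcl-xL was incubated with Bim and compound at eleven concentrations for 60 min at room temperature. Streptavidin-terbium detection was then added for 30 min in the dark, and FRET was read. IC50 values were obtained by non-linear regression.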

pIC50: −log10 of the molar value.

Chain of Bcl-xL (Q07817 whole entry): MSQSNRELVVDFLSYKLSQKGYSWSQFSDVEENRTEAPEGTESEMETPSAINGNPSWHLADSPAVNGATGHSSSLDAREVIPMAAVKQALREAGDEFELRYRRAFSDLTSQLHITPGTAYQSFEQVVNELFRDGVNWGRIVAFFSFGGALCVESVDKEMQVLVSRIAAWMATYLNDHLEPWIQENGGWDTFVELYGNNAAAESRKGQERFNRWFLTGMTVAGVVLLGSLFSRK
Chain of Bcl-2 (P10415 whole entry): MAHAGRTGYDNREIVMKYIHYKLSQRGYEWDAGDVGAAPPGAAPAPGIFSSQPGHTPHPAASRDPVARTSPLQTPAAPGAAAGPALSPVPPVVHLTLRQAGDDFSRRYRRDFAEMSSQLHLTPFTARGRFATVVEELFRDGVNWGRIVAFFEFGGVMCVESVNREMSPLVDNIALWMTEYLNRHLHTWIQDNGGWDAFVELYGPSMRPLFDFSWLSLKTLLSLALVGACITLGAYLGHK

For the molecule `CCCCN(CCCC)C(=O)c1nn(-c2ccc(C(=O)NS(=O)(=O)c3ccc4ccc(Cl)cc4c3)cc2C(=O)N2CCc3ccccc3C2)c(C)c1Cl` [Example 10, N,N-dibutyl-4-chloro-1-(4-(7-chloronaphthalen-2-ylsulfonylcarbamoyl)-2-(1,2,3,4-tetrahydroisoquinoline-2-carbonyl)phenyl)-5-methyl-1H-pyrazole-3-carboxamide], the negative-log IC50 (pIC50) at Bcl-2 and on Bcl-xL was 7.05 each time.
Take `CCCN(CCC)c1nn(-c2ccc(C(=O)NS(=O)(=O)c3ccc4cccc(Cl)c4c3)cc2C(=O)N2CCc3ccccc3C2)c(C(F)(F)F)c1Cl` [Example 196, 4-(4-Chloro-3-(dipropylamino)-5-(trifluoromethyl)-1H-pyrazol-1-yl)-N-(8-chloronaphthalen-2-ylsulfonyl)-3-(1,2,3,4-tetrahydroisoquinoline-2-carbonyl)benzamide]: the negative-log IC50 (pIC50) (in general, −log10 of the IC50, conventionally taken in molar units) was 7.40 against Bcl-2 and 6.29 on Bcl-xL.
With `CCCCN(CCCC)C(=O)c1nn(-c2ccc(C(=O)NS(=O)(=O)c3ccc4c(c3)c(Cl)cn4CC)cc2C(=O)N2CCc3ccccc3C2)c(C)c1Cl` [Example 83, N,N-dibutyl-4-chloro-1-(4-(3-chloro-1-ethyl-1H-indol-5-ylsulfonylcarbamoyl)-2-(1,2,3,4-tetrahydroisoquinoline-2-carbonyl)phenyl)-5-methyl-1H-pyrazole-3-carboxamide], the results for the negative-log IC50 (pIC50) at Bcl-2 and against Bcl-xL were 7.70 and 7.40, respectively.
The corresponding values for `CCCCN(CCCC)C(=O)c1nn(-c2ccc(C(=O)NS(=O)(=O)c3ccc4ccccc4c3)cc2C(=O)N2Cc3ccccc3C[C@@H]2C(=O)O)c(C)c1Cl` [Example 93, (3R)-2-(2-(4-Chloro-3-(dibutylcarbamoyl)-5-methyl-1H-pyrazol-1-yl)-5-(naphthalen-2-ylsulfonylcarbamoyl)benzoyl)-1,2,3,4-tetrahydroisoquinoline-3-carboxylic acid] are 5.78 and 6.70.
For `CCCCN(CCCC)C(=O)c1nn(-c2ccc(C(=O)NS(=O)(=O)c3ccc4c(c3)CCN4CC)cc2C(=O)N2CCc3ccccc3C2)c(C)c1Cl` [Example 53, N,N-dibutyl-4-chloro-1-(4-(1-ethylindolin-5-ylsulfonylcarbamoyl)-2-(1,2,3,4-tetrahydroisoquinoline-2-carbonyl)phenyl)-5-methyl-1H-pyrazole-3-carboxamide], the negative logarithm of the IC50 (pIC50) against Bcl-2 is 7.22; at Bcl-xL, 8.00.
On to `CCCCN(CCCC(F)(F)F)C(=O)c1nn(-c2ccc(C(=O)NS(=O)(=O)c3ccc4ccccc4c3)cc2C(=O)N2CCc3ccccc3C2)c(C)c1Cl` [Example 128, N-butyl-4-chloro-5-methyl-1-(4-(naphthalen-2-ylsulfonylcarbamoyl)-2-(1,2,3,4-tetrahydroisoquinoline-2-carbonyl)phenyl)-N-(4,4,4-trifluorobutyl)-1H-pyrazole-3-carboxamide], for which the pIC50 on Bcl-2 was 6.96; on Bcl-xL, 7.10.
The corresponding values for `CCCCN(C(=O)c1nn(-c2ccc(C(=O)NS(=O)(=O)c3ccc4c(Cl)ccc(Cl)c4c3)cc2C(=O)N2CCc3ccccc3C2)c(C)c1Cl)c1cccc(-c2cccc(Cl)c2)c1` [Example 222, N-butyl-4-chloro-N-(3′-chlorobiphenyl-3-yl)-1-(4-(5,8-dichloronaphthalen-2-ylsulfonylcarbamoyl)-2-(1,2,3,4-tetrahydroisoquinoline-2-carbonyl)phenyl)-5-methyl-1H-pyrazole-3-carboxamide] are 7.15 and 7.40.
Taken in the same sequence, the figures for `CCCCN(Cc1ccc(Cl)c(Cl)c1)C(=O)c1nn(-c2ccc(C(=O)NS(=O)(=O)c3ccc4cccc(Cl)c4c3)cc2C(=O)N2Cc3ccccc3C[C@H]2CO)c(C)c1Cl` [Example 181, N-Butyl-4-chloro-1-(4-(8-chloronaphthalen-2-ylsulfonylcarbamoyl)-2-((S)-3-(hydroxymethyl)-1,2,3,4-tetrahydroisoquinoline-2-carbonyl)phenyl)-N-(3,4-dichlorobenzyl)-5-methyl-1H-pyrazole-3-carboxamide] were 8.07 and 7.30.
On to `CCCCN(CCCC)C(=O)c1nn(-c2ccc(C(=O)NS(=O)(=O)c3ccc4ccc(OCCCN5CCCC5)cc4c3)cc2C(=O)N2CCc3ccccc3C2)c(C)c1Cl` [Example 40, N,N-dibutyl-4-chloro-5-methyl-1-(4-(7-(3-(pyrrolidin-1-yl)propoxy)naphthalen-2-ylsulfonylcarbamoyl)-2-(1,2,3,4-tetrahydroisoquinoline-2-carbonyl)phenyl)-1H-pyrazole-3-carboxamide], for which the figures for the pIC50 against Bcl-2 and against Bcl-xL were 5.42 and 7.52, respectively.

The values above are taken from patent US9346795B2, “Substituted sulfonamides useful as antiapoptotic Bcl inhibitors” (Bristol-Myers Squibb Company, priority 2011, dated 2016).
